Results on ten molecules are retold here after ChEMBL document CHEMBL1201862, “PubChem BioAssay data set” (2004).

What is called GI50 is the concentration at which growth is held to half of that of the control.

Some test systems named below: BT-549; SW-620; MDA-MB-435; SNB-19; K562; OVCAR-5; HCT-15; RPMI-8226; Hs-578T; SK-MEL-5; KM12; A549; HCC 2998; SK-MEL-2; SF-539; SNB-75; HCT-116; RXF 393; T47D; NCI-H226.
Common to all, as to assay: DTP human tumour cell line panel, 48 h

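These data come from cells grown in 96-well plates and exposed to compound for 48 hours at five concentrations. GI50 marks 50% less growth.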 The source made the active and inactive calls. Rule as the data show it: active = GI50 up to about 1.1 µM and inactive = higher.

On to `O=C(O)CSc1ccccc1C(=O)O`, for which the GI50 in the test on BT-549, with SW-620, in the test with MDA-MB-435, in the test on SNB-19, in the test with K562 and with OVCAR-5 was > 100 µM (inactive) each time. The GI50 in the test on HCT-15 was > 100 µM; with RPMI-8226 it was > 100 µM (inactive); with Hs-578T, > 100 µM (inactive); with SK-MEL-5, > 100 µM (inactive); in the test on KM12, > 100 µM (inactive); in the test on A549, > 100 µM (inactive). Besides, the GI50 with HCC 2998 is 29.6 µM (inactive); in the test with SK-MEL-2, > 100 µM (inactive); in the test with SF-539 it was > 100 µM (inactive); in the test on SNB-75, > 100 µM (inactive); in the test with HCT-116, > 100 µM (inactive); in the test on RXF 393 it was > 100 µM (inactive). Moreover, the GI50 was > 100 µM (inactive) in the test on T47D and 99.1 µM (inactive) in the test on NCI-H226.
Consider `COc1ccc(C2c3cc4c(cc3OC(NNS(=O)(=O)c3ccc(C)cc3)C2C)OCO4)cc1` (stereo not given), for which the GI50 in the test on BT-549 was 53.5 µM (inactive); in the test with SW-620, 73.5 µM (inactive); in the test with MDA-MB-435, 54.6 µM (inactive); with SNB-19, > 100 µM (inactive); in the test on K562, 10.6 µM (inactive); in the test on OVCAR-5 it was > 100 µM (inactive). For the same molecule, the GI50 with HCT-15 was 70.1 µM; with RPMI-8226, 12.5 µM (inactive); in the test with Hs-578T, 27.7 µM (inactive); with SK-MEL-5, 69.5 µM (inactive); in the test on KM12 it was 65.9 µM (inactive); with A549, 29.3 µM (inactive). In addition, the GI50 was > 100 µM (inactive) in the test on HCC 2998; 59.7 µM (inactive) in the test with SK-MEL-2; > 100 µM (inactive) with SF-539; 37.4 µM (inactive) in the test on SNB-75; 45.9 µM (inactive) in the test with HCT-116; 38.6 µM (inactive) with RXF 393. Moreover, the values for the GI50 in the test with T47D and in the test with NCI-H226 were 54.2 µM (inactive) and > 100 µM (inactive), respectively.
On to `OCCOCCO[P+]1(OCCOCCO)n2c3ccc2C(c2ccccc2)=C2C=CC(=N2)C(c2ccccc2)=c2ccc(n21)=C(c1ccccc1)C1=NC(=C3c2ccccc2)C=C1`, for which the GI50 with BT-549 is 0.0385 µM (active); in the test on SW-620, 0.184 µM (active); in the test with MDA-MB-435, 0.0316 µM (active); with SNB-19, < 0.01 µM (active); with K562 it was < 0.0188 µM (active); in the test on OVCAR-5, 0.525 µM (active). Further, the GI50 in the test on HCT-15 was 1.51 µM; in the test with RPMI-8226, 0.0142 µM (active); in the test with Hs-578T it was 0.127 µM (active); in the test on SK-MEL-5, 0.0506 µM (active); in the test on KM12, 0.0331 µM (active); in the test with A549, 0.113 µM (active). Also, the GI50 is 0.0378 µM (active) with HCC 2998; 0.0395 µM (active) with SK-MEL-2; 0.188 µM (active) in the test with SF-539; 0.0491 µM (active) with SNB-75; 0.0836 µM (active) in the test on HCT-116; 0.548 µM (active) in the test with RXF 393. Further, the GI50 was 0.04 µM (active) in the test with T47D and 0.162 µM (active) in the test with NCI-H226.
Consider `Cc1sc2[nH]c(=O)oc(=O)c2c1C`, for which the GI50 is 22.9 µM (inactive) in the test with BT-549; > 80.4 µM (inactive) in the test on SW-620; 39.9 µM (inactive) in the test on MDA-MB-435; > 100 µM (inactive) with SNB-19; > 96.4 µM (inactive) with K562; > 100 µM (inactive) in the test on OVCAR-5. Moreover, the GI50 in the test with HCT-15 is > 89.9 µM; in the test on RPMI-8226 it was 41.2 µM (inactive); with Hs-578T, 28.6 µM (inactive); with SK-MEL-5, 48.3 µM (inactive); in the test on KM12, 34.9 µM (inactive); in the test on A549, > 83.8 µM (inactive). Moreover, the GI50 in the test with HCC 2998 is > 88.5 µM (inactive); in the test on SK-MEL-2, 37.7 µM (inactive); in the test with SF-539 it was 58.3 µM (inactive); in the test with SNB-75, > 55.8 µM (inactive); with HCT-116 it was > 100 µM (inactive); in the test with RXF 393, > 100 µM (inactive). For the same molecule, the GI50 in the test with T47D was > 86.5 µM (inactive); in the test with NCI-H226, > 74.5 µM (inactive).
For the molecule `COc1ccc(CN2C(=O)CCC/C=C\[C@H]2CI)cc1`, the GI50 is 19.5 µM (inactive) in the test with BT-549; 11.6 µM (inactive) with SW-620; 12.7 µM (inactive) with MDA-MB-435; 13.2 µM (inactive) with SNB-19; 6.97 µM (inactive) in the test with K562; 12.1 µM (inactive) in the test on OVCAR-5. The concentration for 50% growth inhibition (GI50) is 12.4 µM in the test on HCT-15; 6.97 µM (inactive) in the test with RPMI-8226; 14.2 µM (inactive) with Hs-578T; 12.6 µM (inactive) with SK-MEL-5; 11 µM (inactive) with KM12; 10 µM (inactive) in the test with A549. Further, the GI50 in the test with HCC 2998 was 11.6 µM (inactive); with SK-MEL-2 it was 11 µM (inactive); with SF-539, 13.6 µM (inactive); in the test with SNB-75, 2.41 µM (inactive); in the test on HCT-116, 11.7 µM (inactive); in the test on RXF 393, 3.32 µM (inactive). Besides, the GI50 is 0.286 µM (active) in the test on T47D and 12.9 µM (inactive) in the test on NCI-H226.
For `COC(=O)c1c(O)ccc2c1c1c(n2Cc2ccc(Cl)cc2Cl)C(=O)c2ccccc2C1=O`, the GI50 with BT-549 is 13.2 µM (inactive); with SW-620, 13.4 µM (inactive); in the test on MDA-MB-435 it was 7.91 µM (inactive); in the test with SNB-19, 15.7 µM (inactive); in the test on K562 it was 5.9 µM (inactive); with OVCAR-5 it was 19.5 µM (inactive). Besides, the GI50 in the test with HCT-15 is 5.56 µM; in the test on RPMI-8226, 2.88 µM (inactive); in the test with Hs-578T it was 9.62 µM (inactive); in the test on SK-MEL-5 it was 13.7 µM (inactive); in the test with KM12, 3.41 µM (inactive); in the test with A549 it was 5.62 µM (inactive). Moreover, the GI50 is 3.48 µM (inactive) in the test on HCC 2998; 14.2 µM (inactive) in the test with SK-MEL-2; 14.4 µM (inactive) in the test on SF-539; 17.9 µM (inactive) in the test on SNB-75; 3.91 µM (inactive) with HCT-116; 4.09 µM (inactive) in the test on RXF 393. Moreover, the GI50 in the test on T47D is 1.97 µM (inactive); in the test with NCI-H226, 10.9 µM (inactive).
For the molecule `N#Cc1c(N2CCCC2)ncn(Cc2ccccc2)c1=O`, the GI50 with BT-549, in the test on SW-620, with MDA-MB-435, in the test with SNB-19, in the test with K562 and with OVCAR-5 was > 100 µM (inactive) throughout. In addition, the concentration for 50% growth inhibition (GI50) was > 100 µM in the test with HCT-15; > 100 µM (inactive) in the test on RPMI-8226; > 100 µM (inactive) in the test on Hs-578T; > 100 µM (inactive) in the test with SK-MEL-5; > 100 µM (inactive) with KM12; > 100 µM (inactive) with A549. Further, the GI50 in the test on HCC 2998, with SK-MEL-2, in the test with SF-539, with SNB-75, in the test with HCT-116 and with RXF 393 was > 100 µM (inactive) throughout. In addition, the GI50 with T47D and with NCI-H226 was > 100 µM (inactive) each time.
In the case of `NC(=O)c1nnn(Cc2cc(Cl)c(C(=O)c3ccc(Cl)cc3)c(Cl)c2)c1N` [CARBOXYAMIDOTRIAZOLE], the GI50 is 21.6 µM (inactive) in the test on BT-549; 27.1 µM (inactive) with SW-620; 11 µM (inactive) with MDA-MB-435; 24.4 µM (inactive) in the test on SNB-19; 8.05 µM (inactive) with K562; 34.5 µM (inactive) in the test with OVCAR-5. Besides, the GI50 in the test on HCT-15 is 12.7 µM; in the test with RPMI-8226, 25.4 µM (inactive); with Hs-578T it was 39 µM (inactive); in the test on SK-MEL-5, 5.96 µM (inactive); in the test on KM12, 10.4 µM (inactive); in the test on A549 it was 12.7 µM (inactive). Further, the GI50 was > 9.1 µM (inactive) in the test on HCC 2998; 11.1 µM (inactive) in the test on SK-MEL-2; 29.2 µM (inactive) in the test with SF-539; 32.8 µM (inactive) with SNB-75; 11.1 µM (inactive) in the test on HCT-116; 23.7 µM (inactive) with RXF 393. For the same molecule, the GI50 with T47D was 17.7 µM (inactive); with NCI-H226, 33 µM (inactive).
In the case of `O=C(CNc1ccc(Cl)cc1)Nn1c(-c2ccccc2)nc2ccccc2c1=O`, the GI50 is 2.32 µM (inactive) in the test with BT-549; 5.12 µM (inactive) in the test on SW-620; 8.17 µM (inactive) with MDA-MB-435; 10.8 µM (inactive) in the test with SNB-19; 3.35 µM (inactive) with K562; 14.7 µM (inactive) in the test on OVCAR-5. Further, the GI50 in the test with HCT-15 is 6.7 µM; in the test with RPMI-8226, 4.47 µM (inactive); in the test on Hs-578T, 18.4 µM (inactive); in the test on SK-MEL-5, 2.84 µM (inactive); with KM12, 10.8 µM (inactive); with A549, 14.2 µM (inactive). Also, the GI50 was 11.1 µM (inactive) with HCC 2998; 16 µM (inactive) in the test with SK-MEL-2; 4.37 µM (inactive) in the test on SF-539; 10.1 µM (inactive) with SNB-75; 1.62 µM (inactive) in the test on HCT-116; 6.55 µM (inactive) with RXF 393. Besides, the GI50 is 4.83 µM (inactive) in the test on T47D and 5.52 µM (inactive) in the test on NCI-H226.
For `COC1C=COC2(C)Oc3c(C)c(O)c4c(O)c(c(C5SCCS5)c(O)c4c3C2=O)NC(=O)C(C)=C/C=C\C(C)C2OC(C)(C)OC(C2C)C(C)C(OC(C)=O)C1C` (stereo not given), the GI50 in the test on BT-549 was 3.73 µM (inactive); in the test on SW-620, 7 µM (inactive); in the test on MDA-MB-435, 4.79 µM (inactive); in the test on SNB-19, 16.4 µM (inactive); in the test on K562 it was 4.09 µM (inactive); in the test with OVCAR-5 it was 24.3 µM (inactive). Besides, the concentration for 50% growth inhibition (GI50) in the test with HCT-15 is 5.6 µM; with RPMI-8226, 4.57 µM (inactive); in the test with Hs-578T, 15.8 µM (inactive); in the test on SK-MEL-5, 3.77 µM (inactive); in the test on KM12 it was 6.04 µM (inactive); in the test with A549, 3.66 µM (inactive). The GI50 with HCC 2998 was 5.15 µM (inactive); in the test on SK-MEL-2, 5.79 µM (inactive); with SF-539, 12.9 µM (inactive); in the test with SNB-75, 42.3 µM (inactive); with HCT-116, 5.05 µM (inactive); in the test on RXF 393 it was 7.21 µM (inactive). The results for the GI50 in the test on T47D and with NCI-H226 were 70.6 µM (inactive) and 6.71 µM (inactive), respectively.
